According to PMC3401907, “Cellular Uptakes, Biostabilities and Anti-miR-210 Activities of Chiral Arginine-PNAs in Leukaemic K562 Cells” (Chembiochem, 2012):

Tests used:
[1] = system: RNA2 (mismatched RNA, G→U); experiment: Melting temperature (Tm) of PNA:RNA duplexes, single-mismatch RNA; type: binding; conditions: UV absorbance at 260 nm, PBS buffer pH 7 with urea 5 M, strand concentration 5 μM
Excerpt: Sequence selectivity is a very important issue in view of the use of PNAs in cellular systems, because partial hybridisation might occur with other unrelated miRNAs or, most importantly, with mRNA targets. We analysed the sequence selectivities of our PNAs with stricter models (DNA2 and RNA2) involving single base mismatches (G→T or G→U) located in the middle of the target sequences. In each case the sequence selectivity was confirmed by significant lowering of the melting temperature. The ranges of ΔTm due to the presence of these single mismatches were 8–21 °C for DNA, with the maximum drop in the case of PNA4 and the minimum observed in that of PNA6. For the latter it should be considered that the mismatch was facing the last chiral monomer, preventing the cooperative effect observed in the case of 2D-modifed highly constrained PNA.[22]
Measurements of Tm values: The Tm values were determined with a Lambda Bio 20 spectrophotometer and a Peltier PTP6 temperature programmer. Thermal denaturation profiles were measured by monitoring the absorbance at 260 nm from 18 to 90 °C with a heating rate of 1 °C min^−1 and recording every 0.1 °C. Measurement conditions: [PNA]=[DNA] or [RNA]=5 μM in PBS buffer [pH 7.0, NaCl (100 mM), NaH2PO4⋅H2O (10 mM), EDTA (0.1 mM)] with urea (5 M).

K562 cells = experiment: Mithramycin-induced erythroid differentiation (benzidine-positive cells); type: cell-based, human; conditions: MTH 15 nM, PNA 2 μM, benzidine-positive cells after 5 days of induction, three independent experiments
Experimental: In order to evaluate effects on mithramycin-induced cellular differentiation, K562 cells were treated with MTH in the presence of pept-1, PNA1, PNA2 and PNA4 (each 2 μM). The proportions of benzidine-positive cells were determined after 5 days of induction.
Human cell lines and culture conditions: Human leukaemia K562 cells were cultured under humidified CO2 (5 %)/air in RPMI 1640 medium (Sigma) supplemented with foetal bovine serum (FBS, 10 %, Analitical de Mori, Milan, Italy), penicillin (50 units mL^−1) and streptomycin (50 μg mL^−1).[26] Mithramycin (MTH) was from Sigma. Stock solutions of MTH (100 μM) were stored at −20 °C in the dark and diluted immediately before use. Treatment of K562 cells with MTH was carried out by addition of the appropriate drug concentrations at the beginning of the cultures (cells were seeded at 30 000 mL^−1). The medium was not changed during the induction period. To determine antiproliferative activity, cell growth was studied by determining the cell number per mL with a Z1 Coulter Counter (Coulter Electronics, Hialeah, FL, USA). Erythroid differentiated K562 cells containing haemoglobin were detected by specific reaction with a benzidine/hydrogen peroxide solution as reported elsewhere.[26] The final concentration of benzidine was 0.2 % in glacial acetic acid (5 M) and H2O2 (10 %).

[2] = system: let-7c, miR-10a, miR-93, miR-99b, miR-126, miR-149, miR-424, miR-494, miR-483-5p and miR-625; experiment: Content of other microRNAs by RT-PCR (sequence specificity); type: cell-based, human; conditions: n=3
Experimental: Figure 5 A), B) Effects of treatment with PNA1, PNA2, PNA3, PNA4, PNA5 and PNA6 molecules on miR-210 contents in cells cultured for 24 h A) in the absence (□), and B) in the presence (▪) of MTH (15 nM). Data are reported as arbitrary units relative to cells treated with pept-1 (□) or with pept-1 and MTH (▪). C) Effects of treatment with PNA4 on miRNA contents in cells cultured for 24 h in the presence of MTH; RT-PCR was performed with a TaqMan MicroRNA Reverse Transcription Kit (Applied Biosystems) for let-7c, miR-10a, miR-93, miR-99b, miR-126, miR-149, miR-424, miR-483-5p and miR-625. Data are reported as arbitrary units relative to untreated cells (average ±SD; n=3).
Real-time quantitative PCR: For microRNA quantification with real-time RT-PCR reagents, the primers and probes were obtained from Applied Biosystems. […] Relative expression was calculated by the comparative cycle threshold method and U6 microRNA was used as reference gene to normalise all RNA samples, because it is constant in the assayed samples by miR-profiling and quantitative RT-PCR analysis as previously reported.[25]

## H-C5LArgC5LArgG5LArgC5LArgT5LArgG5LArgT5LArgC5LArgACACGCACAG-NH2 [PNA4, 5L Arg (C5) backbone-modified 18-mer PNA, model 2, stretch of consecutive modified monomers]
[1]
  Tm, RNA2 in urea (5 M): 75 °C
K562 cells
  effect on MTH-induced erythroid differentiation: able to inhibit erythroid differentiation
[2]; K562 cells 24 h in the presence of MTH, RT-PCR
  effect on miR-149 hybridisation signal: inhibition of the hybridisation signal
[2]; K562 cells 24 h with MTH, let-7c, miR-10a, miR-93, miR-99b, miR-126, miR-424, miR-494, miR-483-5p, miR-625
  effect on hybridisation availability of other miRs: no major effects
